Test results from publication PMC11535068, “Design, in silico studies and biological evaluation of novel chalcones tethered triazolo[3,4-a]isoquinoline as EGFR inhibitors targeting resistance in non-small cell lung cancer” (Scientific Reports, 2024).

Assays:
A549 lung cancer cells [1] = assay: Cell cycle analysis (DNA content, flow cytometry); assay type: cell-based, human; details: A549, 24 h, at IC50
Protocol: (§1) Quantitation of DNA content was evaluated using the Annexin V-FITC Apoptosis Detection kit (BioVision, CA, USA). Dual staining for Annexin-V and PI allows the discrimination between live cells, necrotic cells, and cells in different phases of apoptosis. […] Then, cells were collected and washed with 1X phosphate-buffered saline. The cells were stained in the dark with annexin V-FITC and propidium iodide in a binding buffer and analyzed using the flow cytometer. The cell cycle profiles were analysed using MultiCycle software (Phoenix Flow Systems, San Diego, CA)[60].

PC3 = assay: MTT antiproliferative assay; details: Homo sapiens, PC-3, 24 h, read-out: IC50 PC3
Protocol: (§4) Cell line cells were purchased from the American Type Culture Collection (ATCC, Manassas, VA) and were cultured according to the supplier’s instructions. […] The media was changed every 48 h, and the cells were split when 80–90% confluence was reached. Cell viability was evaluated by MTT assay.

MCF-7 = assay: MTT antiproliferative assay; details: Homo sapiens, MCF7, 24 h, read-out: IC50 MCF-7
Protocol: as §4

WI-38 = assay: MTT assay on normal lung cell line; details: Homo sapiens, WI-38, 24 h, read-out: IC50 WI-38
Protocol: as §4

A549 = assay: MTT antiproliferative assay; details: Homo sapiens, A549, 24 h, read-out: IC50 A549
Protocol: as §4

HT-29 = assay: MTT antiproliferative assay; details: Homo sapiens, HT-29, 24 h, read-out: IC50 HT-29
Protocol: as §4

EGFR^T790M = molecular target: T1, EGFR^T790M (Homo sapiens, UniProt P00533, T790M); assay: Homogeneous time-resolved fluorescence EGFR-TK assay; assay type: biochemical; details: selectivity index
T1 construct: purchased Signalchem
Protocol: (§2) EGFR inhibition assay was performed on A549 cancer cells using cloud clone product SEA757Hu 96 Ki, according to manufacturer’s instructions protocol. The homogeneous time-resolved fluorescence assay method was used to assess the inhibitory activity of 3e and 3f against EGFR^WT, EGFR^T790M and EGFR^L858R. The EGFR proteins (EGFR^WT, EGFR^T790M and EGFR^L858R) were obtained from Signalchem (BC V6V 2J2, Canada). ATP and other chemicals were obtained from Sigma. […] After 30 min, the reaction was stopped by adding detection reagents containing EDTA.

EGFR^L858R = molecular target: T2, EGFR^L858R (Homo sapiens, UniProt P00533, L858R); assay: as above; assay type: biochemical; details: selectivity index
T2 construct: purchased Signalchem
Protocol: as §2

HCT-116 = assay: MTT antiproliferative assay; details: Homo sapiens, HCT-116, 24 h, read-out: IC50 HCT-116
Protocol: as §4

total EGFR = molecular target: T3, total EGFR (Homo sapiens, UniProt P00533); assay: EGFR inhibition assay on A549 cells (cloud clone SEA757Hu kit); assay type: cell-based
T3 construct: endogenous in cells; host or cells: A549
Protocol: as §2

A549 lung cancer cells [2] = assay: Annexin V-FITC/PI flow cytometric apoptosis analysis; assay type: cell-based, human; details: A549, 24 h, 3e 2.3 µM, 3f 1.15 µM (IC50)
Protocol: as §1

Bax = assay: RT-qPCR gene expression in A549 cells; assay type: cell-based, human; details: A549, 24 h, vs vehicle cells
Protocol: (§3) The real-time polymerase chain reaction (RT-qPCR) technique was used to evaluate the gene expression. A panel of eight genes (P53, BAX, Caspase-3, Caspase-8, Caspase-9, MMP1, CDK4, and Bcl2) was chosen to estimate the compounds’ ability to induce apoptosis. A549 cancer cells were treated with 3e and 3f compounds for 24 h before total RNA extraction. While untreated A549 cancer cells were utilized as a negative control. One-step RT-qPCR was performed using the iScript™ One-Step RT-PCR kit with SYBR®. The primer pairs sequences for each gene used are mentioned in Table 7. Control reactions were formed […] or without the reverse transcriptase enzyme.

MMP1 = assay: RT-qPCR gene expression in A549 cells; assay type: cell-based, human; details: A549, 24 h, vs vehicle cells, beta-actin housekeeping gene
Protocol: as §3

Caspase 3 = assay: RT-qPCR gene expression in A549 cells; assay type: cell-based, human; details: A549, 24 h, vs vehicle cells, beta-actin housekeeping gene
Protocol: as §3

P53 = assay: RT-qPCR gene expression in A549 cells; assay type: cell-based, human; details: A549, 24 h, vs vehicle cells
Protocol: as §3

Bcl2 = assay: RT-qPCR gene expression in A549 cells; assay type: cell-based, human; details: A549, 24 h, vs vehicle cells, beta-actin housekeeping gene
Protocol: as §3

Caspase 9 = assay: RT-qPCR gene expression in A549 cells; assay type: cell-based, human; details: A549, 24 h, vs vehicle cells, beta-actin housekeeping gene
Protocol: as §3

Caspase 8 = assay: RT-qPCR gene expression in A549 cells; assay type: cell-based, human; details: A549, 24 h, vs vehicle cells, beta-actin housekeeping gene
Protocol: as §3

CDK4 = assay: RT-qPCR gene expression in A549 cells; assay type: cell-based, human; details: A549, 24 h, vs vehicle cells, beta-actin housekeeping gene
Protocol: as §3

COc1cc2c(cc1OC)C1N(CC2)C(C(=O)C=Cc2cn(-c3ccccc3)nc2-c2ccccc2)=NN1c1ccc([N+](=O)[O-])cc1 (stereo not drawn) [Compound 3f, 1-(8,9-Dimethoxy-1-(4-nitrophenyl)-1,5,6,10b-tetrahydro-[1,2,4]triazolo[3,4-a]isoquinolin-3-yl)-3-(1,3-diphenyl-1H-pyrazol-4-yl)prop-2-en-1-one]
DNA content Pre-G1% (A549 lung cancer cells [1]; vehicle 2.28%): 28.21% | DNA content G2/M% (A549 lung cancer cells [1]; vehicle 8.99%): 39.84% | DNA content S% (A549 lung cancer cells [1]; vehicle 44.26%): 26.42% | DNA content G0–G1% (A549 lung cancer cells [1]; vehicle 46.75%): 33.74% | IC50 (PC3): 22.16 ± 0.18 µM | IC50 (MCF-7): 5.53 ± 0.33 µM | IC50 (WI-38): 1578 ± 0.23 µM | IC50 (A549): 1.15 ± 0.38 µM | IC50 (HT-29): 2.41 ± 0.41 µM | SI^b = EGFR^WT IC50/ EGFR^T790M IC50 (EGFR^T790M): 4.52 | SI^a = EGFR^WT IC50/ EGFR^L858R IC50 (EGFR^L858R): 25.95 | IC50 (HCT-116): 4.61 ± 0.28 µM | Fold more efficient in inhibiting EGFR than lapatinib (total EGFR; total EGFR IC50 ratio to Lapatinib): 1.91 fold | IC50 (total EGFR; total EGFR, A549 cells): 0.023 µM | Apoptosis Late (%) (A549 lung cancer cells [2]; vehicle 0.21%): 15.24% | Apoptosis Early (%) (A549 lung cancer cells [2]; vehicle 0.49%): 3.08% | Apoptosis Total (%) (A549 lung cancer cells [2]; vehicle 0.70%): 18.32% | Necrosis (%) (A549 lung cancer cells [2]; vehicle 1.58%): 9.89% | Bax gene expression (in words) (Bax): significantly upregulated | MMP1 gene expression fold change (MMP1): 0.31 fold | Caspase 3 gene expression fold change (Caspase 3): 11.26 fold | p53 gene expression (in words) (P53): significantly upregulated | Bcl-2 gene expression fold change (Bcl2): 0.13 fold | Caspase 9 gene expression fold change (Caspase 9): 9.32 fold | Caspase 8 gene expression fold change (Caspase 8): 3.48 fold | CDK4 gene expression fold change (CDK4): 0.29 fold | melting point: 224 to 226 °C
